Measured values from US20180353512A1, “COMBINATION THERAPIES FOR TREATING B-CELL MALIGNANCIES” (GILEAD SCIENCES, INC., priority 2015, published 2018).
Read-outs that look alike come from different tables or passages of the source.

Columns and labels:
Format in all cases: cell-based
[1] = test system: OCI-LY10 cells; assay: CellTiter-Glo cell viability assay, four days (Example 1A); conditions: for EC50: Homo sapiens; for growth of cell line: OCI-LY10, single agent
Experimental: (§1) In vitro anti-proliferative activity of agents was assessed using CellTiter-Glo™ Assay (Promega), which quantifies cellular ATP level. Test compounds were dissolved in DMSO to prepare 10 mM stock solutions. […] For drug combination studies, a two or three fold horizontal serial dilution pattern was used for Compound B and combined with Idelalisib using a two, three, or four fold vertical serial dilution pattern. […] The final DMSO concentration in the test media was 0.2%. Each combination used replicates of four plates to generate sufficient data for evaluation of synergy scores. […] The assay growth medium for all lines was RPMI supplemented with 20% FBS and […] penicillin-streptomycin. Seeding density was optimized for growth rate over 96 hours for each cell line and was between 10,000-30,000 cells per well of 96 well plates. After four days incubation with agents at 37° C./5% CO2, the CellTiter-Glo™ assay was performed following the manufacturer's protocol. Relative luminescence units were quantified using a Biotek Synergy luminometer.
(§2) Data from a plate was excluded if either Z′<0.5 or the growth of the cell lines was less than one doubling in the four day assay period. Z′ was calculated using the formula: Z′=[1−((3(σstau+σDMSO))/(|μDMSO−μstau|)] where σstau and σDMSO are the standard deviation of the 100% inhibited staurosporine and 0% inhibited DMSO control wells, respectively. μDMSO and μstau are the mean of the […] control wells, respectively. The raw Cell Titer Glo signal was normalized according to the following formula: [(raw value)−(100% inhibited staurosporine control)]/[(DMSO control value)−(100% inhibited staurosporine control)].
(§3) EC50 was determined using GraphPad Prism or Dose Response software by fitting the data to a four parameters variable slope model. […] For combination studies, the EC50 at each test article concentration was determined from graphs of the EC50 of one compound at a fixed dose of second compound. The EC50 shift was calculated by taking the ratio of the EC50 of the single agent by the EC50 at the maximum dose of the second agent.
(§4) Synergy was analyzed using the MacSynergy II program, which calculates a theoretical additive value for the drug combination that is based on the values generated by each drug alone using the Bliss Independence mathematical model. The Bliss independence model assumes that each drug acts independently. The theoretical additive effect for each compound is calculated and then subtracted from the actual effect. Synergy is defined by greater than expected effects while antagonism is defined by less than expected effects. In this example, a synergy volume greater than 50 was considered significant. The EC50 values determined in drug combination studies represent a single experiment run in quadruplicate and therefore may differ slightly from the single agent EC50 values.

[2] = test system: Pfeiffer cells; assay: as above; conditions: for EC50: Homo sapiens
Experimental: as §1, §2, §3, §4

[3] = test system: Ri-1 cells; assay: as above; conditions: for EC50: Ri-1, Ri-1; for growth of cell line: single agent
Experimental: as §1, §2, §3, §4

[4] = test system: TMD-8 cells; assay: as above; conditions: for EC50: Homo sapiens; for growth of cell line: single agent
Experimental: as §1, §2, §3, §4

[5] = test system: pERK T202/Y204; assay: Western Blot of TMD-8 Ibrutinib resistant lines; conditions: idelalisib 420 nM, Compound B 320 nM
Experimental: Western Blot samples were prepared by lysing 10^6 cells for 30 minutes in 150 μL ice-cold lysis buffer. Protease Inhibitor Cocktail (Roche Diagnostics Corp), and phosphatase inhibitor sets 1 and 2 (EMD Millipore) were also added to the lysis buffer (Cell Signaling Technology). Cells were centrifuged at 12.5 g for 10 minutes at 4° C.; supernatant was collected and transferred to new tube. Sample buffer was added to each lysate, and then boiled at 99° C. for 5 minutes. Protein was loaded into an SDS-PAGE gel and run for 2 h at 125V. After electrophoresis, gel was transferred to Immobilon-F membrane using the X Cell Blot. The membrane was then blocked for 1 h at room temperature in blocking buffer and incubated overnight with primary antibodies diluted in a blocking buffer. The following day, the membranes were washed 3× (5 min each) with TBST; secondary antibodies were added and membrane was incubated for 45 minutes at room temperature, followed by 3×TBST (5 min each). Blots were read using Licor Imager. Primary antibodies included p-AKT (S473), p-BTK (Y223), BTK, p-ERK (T202/Y204), ERK, and actin (Cell Signaling Technologies), and secondary antibodies included IRDye-conjugated anti-mouse and anti-rabbit antibodies; LI-COR. Band intensity was measured using LI-COR imager and LI-COR Odyssey software.
(§5) Total protein expression levels and phosphorylation of PI3K, MAPK, BTK and NF-κB components were determined by Western Blot or Peggy Sue. Cells were treated with idelalisib (420 nM), Compound B (320 nM) or in combination. Protein expression level and phosphoproteomics were determined using Western Blot (p-ERK 1/2, p-AKT S473, total AKT) and Peggy Sue (p-BTK, p-IκBα S32, total IκBα), using procedures as described in Example 3B. Results were quantitated after determining the AUC for each group and normalized to DMSO vehicle control.

[6] = test system: pIκBa S32; assay: Peggy Sue analysis of TMD-8 Ibrutinib resistant lines; conditions: idelalisib 420 nM, Compound B 320 nM
Experimental: Lysates were also analyzed by Simple Western using Peggy Sue (ProteinSimple). A standard curve using recombinant proteins was generated to measure PI3K isoform levels on Peggy Sue; data was processed using Compass software (ProteinSimple).
as §5

[7] = OCI-Ly10, OCI-LY10, bound stated for three ABC-DLBCL cell lines, read-out: EC50, growth inhibition, single agent
[8] = Idelalisib 0 nM, read-out: EC50 of Compound B in Combination with Idelalisib
[9] = bound stated for three ABC-DLBCL cell lines, read-out: EC50, growth inhibition, single agent
[10] = TMD8, TMD-8, bound stated for three ABC-DLBCL cell lines, read-out: EC50, growth inhibition, single agent
[11] = A20-Q143* line, normalized to DMSO control, DMSO 0.91
[12] = control line, normalized to DMSO vehicle control
[13] = A20-Q143* line, normalized to DMSO control, DMSO 1.39
[14] = Compound B 45 nM, read-out: EC50 of Idelalisib when Combined with Compound B

CC#CC(=O)N1CC[C@@H](n2c(=O)n(-c3ccc(Oc4ccccc4)cc3)c3c(N)ncnc32)C1 [Compound B, 6-amino-9-[(3R)-1-(2-butynoyl)-3-pyrrolidinyl]-7-(4-phenoxyphenyl)-7,9-dihydro-8H-purin-8-one]
EC50 [1, 7]: < 26 nM
EC50 ([1]; OCI-Ly10, OCI-LY-10, Idelalisib 0 nM, read-out: EC50 of Compound B in Combination with Idelalisib): 6 nM
EC50 ([1]; OCI-Ly10, OCI-LY-10, Idelalisib 156 nM, read-out: EC50 of Compound B in Combination with Idelalisib): 3 nM
EC50 ([1]; OCI-Ly10, OCI-LY-10, Idelalisib 625 nM, read-out: EC50 of Compound B in Combination with Idelalisib): 3 nM
growth of cell line [1]: inhibited the growth
Compound B EC50 shift (fold) ([1]; OCI-LY-10, single agent EC50 / EC50 at maximum dose of Idelalisib): 2 fold
EC50 [2, 8]: > 10000 nM
Compound B EC50 shift (fold) ([2]; No EC50 shift observed at up to 2.5 μM): None^c
EC50 [3, 8]: 5 nM
EC50 ([3]; Idelalisib 156 nM, read-out: EC50 of Compound B in Combination with Idelalisib): 2 nM
EC50 ([3]; Idelalisib 625 nM, read-out: EC50 of Compound B in Combination with Idelalisib): 2 nM
EC50 [3, 9]: < 26 nM
growth of cell line ([3]; Ri-1): inhibited the growth
Compound B EC50 shift (fold) ([3]; Ri-1, single agent EC50 / EC50 at maximum dose of Idelalisib): 2.5 fold
EC50 ([4]; TMD8, TMD-8, Idelalisib 0 nM, read-out: EC50 of Compound B in Combination with Idelalisib): 11 nM
EC50 ([4]; TMD8, TMD-8, Idelalisib 156 nM, read-out: EC50 of Compound B in Combination with Idelalisib): 5 nM
EC50 ([4]; TMD8, TMD-8, Idelalisib 625 nM, read-out: EC50 of Compound B in Combination with Idelalisib): 4 nM
EC50 [4, 10]: < 26 nM
growth of cell line ([4]; TMD-8): inhibited the growth
Compound B EC50 shift (fold) ([4]; TMD-8, single agent EC50 / EC50 at maximum dose of Idelalisib): 2.75 fold
pERK T202/Y204 [5, 11]: 0.76
pERK T202/Y204 [5, 12]: 0.35
pIκBa S32 [6, 13]: 1.12
pIκBa S32 [6, 12]: 0.62

CCC(Nc1ncnc2[nH]cnc12)c1nc2cccc(F)c2c(=O)n1-c1ccccc1 (centres unmarked) [Idelalisib, 2-(1-((9H-Purin-6-yl)amino)propyl)-5-fluoro-3-phenylquinazolin-4(3H)-one]
EC50 ([1]; OCI-Ly10, OCI-LY10, addition of Compound B at 6 nM, read-out: EC50 of idelalisib): 24 nM
EC50 ([1]; OCI-Ly10, OCI-LY10, addition of Compound B at 12 nM, read-out: EC50 of idelalisib): 19 nM
EC50 ([1]; OCI-Ly10, OCI-LY10, addition of Compound B at 25 nM, read-out: EC50 of idelalisib): 13 nM
EC50 [1, 7]: < 210 nM
EC50 ([1]; OCI-Ly10, OCI-LY10, without Compound B, read-out: EC50 of idelalisib): 122 nM
EC50 ([1]; OCI-Ly10, OCI-LY-10, Compound B 0 nM, read-out: EC50 of Idelalisib when Combined with Compound B): 440 nM
EC50 ([1]; OCI-Ly10, OCI-LY-10, Compound B 5 nM, read-out: EC50 of Idelalisib when Combined with Compound B): 38 nM
EC50 ([1]; OCI-Ly10, OCI-LY-10, Compound B 15 nM, read-out: EC50 of Idelalisib when Combined with Compound B): 22 nM
EC50 ([1]; OCI-Ly10, OCI-LY-10, Compound B 45 nM, read-out: EC50 of Idelalisib when Combined with Compound B): 5 nM
growth of cell line [1]: inhibited the growth
Idelalisib EC50 shift (fold) ([1]; OCI-LY-10, single agent EC50 / EC50 at maximum dose of Compound B): 88 fold
EC50 [2, 14]: 174 nM
Idelalisib EC50 shift (fold) ([2]; single agent EC50 / EC50 at maximum dose of Compound B): 1 fold
EC50 ([3]; Compound B 0 nM, read-out: EC50 of Idelalisib when Combined with Compound B): 442 nM
EC50 ([3]; Compound B 5 nM, read-out: EC50 of Idelalisib when Combined with Compound B): 372 nM
EC50 ([3]; Compound B 15 nM, read-out: EC50 of Idelalisib when Combined with Compound B): 372 nM
EC50 [3, 14]: 372 nM
EC50 [3, 9]: < 210 nM
growth of cell line ([3]; Ri-1): inhibited the growth
Idelalisib EC50 shift (fold) ([3]; Ri-1, single agent EC50 / EC50 at maximum dose of Compound B): 1.2 fold
EC50 ([4]; TMD8, TMD8, addition of Compound B at 6 nM, read-out: EC50 of idelalisib): 108 nM
EC50 ([4]; TMD8, TMD8, addition of Compound B at 12 nM, read-out: EC50 of idelalisib): 34 nM
EC50 ([4]; TMD8, TMD8, addition of Compound B at 25 nM, read-out: EC50 of idelalisib): 24 nM
EC50 ([4]; TMD8, TMD8, without Compound B, read-out: EC50 of idelalisib): 254 nM
EC50 ([4]; TMD8, TMD-8, Compound B 0 nM, read-out: EC50 of Idelalisib when Combined with Compound B): 254 nM
EC50 ([4]; TMD8, TMD-8, Compound B 5 nM, read-out: EC50 of Idelalisib when Combined with Compound B): 130 nM
EC50 ([4]; TMD8, TMD-8, Compound B 15 nM, read-out: EC50 of Idelalisib when Combined with Compound B): 32 nM
EC50 ([4]; TMD8, TMD-8, Compound B 45 nM, read-out: EC50 of Idelalisib when Combined with Compound B): 24 nM
EC50 [4, 10]: < 210 nM
growth of cell line ([4]; TMD-8): inhibited the growth
Idelalisib EC50 shift (fold) ([4]; TMD-8, single agent EC50 / EC50 at maximum dose of Compound B): 10.6 fold
pERK T202/Y204 [5, 11]: 0.73
pERK T202/Y204 [5, 12]: 0.13
pIκBa S32 [6, 13]: 0.92
pIκBa S32 [6, 12]: 1.09
